The subject of data set [1] is MES-SA/Dx5 (Dx5) cells. Nature of the data set: Growth inhibition (MTT) assay, with or without MDR modulators. It counts as cell-based, human. How it is done:
(§1) Cells and Tissue Culture. Details of the development and characterization of the human cell line MES-SA and its MDR variant MES-SA/Dx5 (D×5), which were derived from sarcoma elements of a uterine mixed Mullerian tumor, are described in Harker and Sikic (1985) Cancer Research 45:3810-3815. MES-SA/DxP5002 (DxP) cells were derived from Dx5.05 cells (D×5 cells selected and maintained at a DOX concentration of 0.5 μM) by step-wise selection in the presence of increasing DOX concentrations (from 40 nM up to 0.5 μM) and a constant PSC 833 concentration at 2 μM over a one-year period. Monolayer cultures of MES-SA cells and its variants were grown in McCoy's medium (Irvine Scientific, Santa Ana, Calif.) supplemented with 10% newborn calf serum (Gibco, Grand Island, N.Y.), 2 mM L-glutamine, and antibiotics(100 U/ml penicillin, 100 μg/ml streptomycin).
(§2) Growth Inhibition Assay. Approximately 8000 cells per well were seeded in 96 well plates and incubated with or without drugs for 72 hr at 37° C. in an atmosphere of 5% CO2. Growth inhibition was evaluated by the MTT colorimetric assay in triplicate or quadruplicate as previously described. The absorbance was measured with a ThermoMax microplate reader (Molecular Devices, Menlo Park, Calif.). The IC50 (drug concentration resulting in 50% inhibition of MTT dye formation, compared to controls) was determined directly from semi-logarithmic dose-response curves. The doubling times of MES-SA, D×5, and D×P were determined as previously described.
(§3) Reversal of MDR by Modulators. […] The modulation ratio was obtained by comparing IC50 s in the presence and absence of modulators.

Data set [2] concerns MES-SA/DxP5002 (DxP) cells. The description is as above. How it is done: Cells and Tissue Culture. […] Monolayer cultures of MES-SA cells and its variants were grown in McCoy's medium (Irvine Scientific, Santa Ana, Calif.) supplemented with 10% newborn calf serum (Gibco, Grand Island, N.Y.), 2 mM L-glutamine, and antibiotics(100 U/ml penicillin, 100 μg/ml streptomycin).
Growth Inhibition Assay. Approximately 8000 cells per well were seeded in 96 well plates and incubated with or without drugs for 72 hr at 37° C. in an atmosphere of 5% CO2. Growth inhibition was evaluated by the MTT colorimetric assay in triplicate or quadruplicate as previously described. The absorbance was measured with a ThermoMax microplate reader (Molecular Devices, Menlo Park, Calif.). […] The doubling times of MES-SA, D×5, and D×P were determined as previously described.
as §3

The test system of data set [3] is Dx5 cells. Nature of the data set: Rh-123 retention, flow cytometry. It counts as cell-based, human. As for the experimental part: Flow Cytometric Analysis. The flow cytometric analysis of Rh-123 retention and P-gp expression were determined by a dual laser flow cytometer (FACS-II™; Becton Dickinson Corp., Mountain View, Calif.). Double labeling with Rh-123 and the monoclonal antibody UIC2 (Immunotech Coporation, Westbrook, Me.) was performed as previously described. Briefly, following the Rh-123 incubation step, cells were treated with UIC2 (40 μg/ml) and then reacted with either Texas Red or FITC-conjugated goat anti-mouse IgG2a secondary antibody (Caltag, So. San Francisco, Calif,). Cells were centrifuged through a calf serum cushion, resuspended in 200 μl of modified ice-cold Hank's balanced salt solution, and analyzed by flow cytometry.
A general note: In flow cytometry, cells or beads pass a laser one at a time.

In data set [4] the test system is Dx5 cells. Description: Cellular accumulation of [3H]-labeled drugs. It counts as cell-based, human. As for the experimental part:
(§4) Cellular Accumulation of [^3 H]-Daunorubicin, [^3 H]-Vinblastine, and [^3 H]Cyclosporine. lntracellular drug accumulation was quantified using radiolabeled drugs in a modified assay. The cells were seeded in 35×10 mm tissue culture dishes (Falcon, Becton Dickinson, Lincoln Park, N.J.), at 1×10^6 cells/dish. After overnight incubation, the growth medium was replaced with serum-free McCoy's 5A medium supplemented with 40 mM Hepes buffer (Sigma Chemicals, St. Louis, Mo.). Radiolabeled drugs were added at the appropriate concentration and incubated for 1 hr at 37° C. The medium was aspirated and cell pellet solubilized in 4% SDS at 65° C. for 1 hr. Ecolite™ scintillation cocktail (INC Biochemicals, Costa Mesa, Calif.) was added and radioactivity determined on an LS-9000 scintillation counter (Beckman Instruments, Brea, Calif.). All values were normalized to protein content.

Data set [5] concerns DxP cells. Nature of the data set: Cellular accumulation of [3H]-labeled drugs. It counts as cell-based, human. As for the experimental part: as §4
Data set [6] deals with P-gp of Dx5 cells (Homo sapiens, UniProt P08183).
Chain of P-gp of Dx5 cells (P08183 whole entry): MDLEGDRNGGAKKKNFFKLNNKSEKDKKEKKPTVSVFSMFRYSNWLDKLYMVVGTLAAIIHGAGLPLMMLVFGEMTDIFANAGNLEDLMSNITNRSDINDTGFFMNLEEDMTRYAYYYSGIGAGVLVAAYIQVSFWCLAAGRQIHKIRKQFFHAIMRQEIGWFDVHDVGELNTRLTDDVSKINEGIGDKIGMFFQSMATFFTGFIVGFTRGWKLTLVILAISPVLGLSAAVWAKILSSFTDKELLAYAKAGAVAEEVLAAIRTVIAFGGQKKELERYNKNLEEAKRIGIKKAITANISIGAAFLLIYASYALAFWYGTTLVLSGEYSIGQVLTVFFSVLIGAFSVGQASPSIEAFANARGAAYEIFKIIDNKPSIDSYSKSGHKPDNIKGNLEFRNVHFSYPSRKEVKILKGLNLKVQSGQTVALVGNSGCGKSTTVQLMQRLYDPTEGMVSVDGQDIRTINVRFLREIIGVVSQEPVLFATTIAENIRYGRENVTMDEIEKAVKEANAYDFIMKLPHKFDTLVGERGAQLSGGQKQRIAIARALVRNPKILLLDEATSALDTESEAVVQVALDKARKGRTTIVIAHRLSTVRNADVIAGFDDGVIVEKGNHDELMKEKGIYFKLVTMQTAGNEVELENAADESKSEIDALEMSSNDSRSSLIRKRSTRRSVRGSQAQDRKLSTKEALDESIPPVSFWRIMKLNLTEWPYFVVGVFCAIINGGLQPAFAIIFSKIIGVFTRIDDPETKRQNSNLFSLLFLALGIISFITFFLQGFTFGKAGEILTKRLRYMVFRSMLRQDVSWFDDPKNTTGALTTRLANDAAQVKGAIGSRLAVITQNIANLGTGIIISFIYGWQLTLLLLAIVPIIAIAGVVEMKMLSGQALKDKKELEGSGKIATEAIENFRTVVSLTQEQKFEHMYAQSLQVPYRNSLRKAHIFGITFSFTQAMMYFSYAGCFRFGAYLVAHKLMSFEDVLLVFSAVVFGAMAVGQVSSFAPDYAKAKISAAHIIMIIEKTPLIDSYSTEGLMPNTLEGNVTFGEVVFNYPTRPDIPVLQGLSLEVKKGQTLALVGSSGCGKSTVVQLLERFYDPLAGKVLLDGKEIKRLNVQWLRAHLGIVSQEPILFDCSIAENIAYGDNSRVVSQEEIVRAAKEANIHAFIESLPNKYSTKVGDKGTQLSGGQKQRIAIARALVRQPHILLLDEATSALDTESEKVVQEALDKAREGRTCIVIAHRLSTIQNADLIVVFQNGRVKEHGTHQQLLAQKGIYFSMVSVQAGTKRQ
Procedure: (§6) Photoaffinity Labeling with [^25 -I]-iodoarylazidoprazesin and [^3 H]-Azidopine. […] These preparations were incubated at 25° C. for 1 hour in the dark, followed by a 20 min exposure to a 366 nm UV source (UVP, Inc., San Gabriel, Calif.). 50 μl of loading buffer was added and proteins separated on an 8% SDS-polyacrylamide gel, dried, and analyzed by autoradiography.
For data set [7], the target named is P-gp of DxP cells (Phe335/336 deletion) (Homo sapiens, UniProt P08183, DEL335-335).
Chain of P-gp of DxP cells (Phe335/336 deletion) (P08183 with tags, fused parts or gaps DEL335-335): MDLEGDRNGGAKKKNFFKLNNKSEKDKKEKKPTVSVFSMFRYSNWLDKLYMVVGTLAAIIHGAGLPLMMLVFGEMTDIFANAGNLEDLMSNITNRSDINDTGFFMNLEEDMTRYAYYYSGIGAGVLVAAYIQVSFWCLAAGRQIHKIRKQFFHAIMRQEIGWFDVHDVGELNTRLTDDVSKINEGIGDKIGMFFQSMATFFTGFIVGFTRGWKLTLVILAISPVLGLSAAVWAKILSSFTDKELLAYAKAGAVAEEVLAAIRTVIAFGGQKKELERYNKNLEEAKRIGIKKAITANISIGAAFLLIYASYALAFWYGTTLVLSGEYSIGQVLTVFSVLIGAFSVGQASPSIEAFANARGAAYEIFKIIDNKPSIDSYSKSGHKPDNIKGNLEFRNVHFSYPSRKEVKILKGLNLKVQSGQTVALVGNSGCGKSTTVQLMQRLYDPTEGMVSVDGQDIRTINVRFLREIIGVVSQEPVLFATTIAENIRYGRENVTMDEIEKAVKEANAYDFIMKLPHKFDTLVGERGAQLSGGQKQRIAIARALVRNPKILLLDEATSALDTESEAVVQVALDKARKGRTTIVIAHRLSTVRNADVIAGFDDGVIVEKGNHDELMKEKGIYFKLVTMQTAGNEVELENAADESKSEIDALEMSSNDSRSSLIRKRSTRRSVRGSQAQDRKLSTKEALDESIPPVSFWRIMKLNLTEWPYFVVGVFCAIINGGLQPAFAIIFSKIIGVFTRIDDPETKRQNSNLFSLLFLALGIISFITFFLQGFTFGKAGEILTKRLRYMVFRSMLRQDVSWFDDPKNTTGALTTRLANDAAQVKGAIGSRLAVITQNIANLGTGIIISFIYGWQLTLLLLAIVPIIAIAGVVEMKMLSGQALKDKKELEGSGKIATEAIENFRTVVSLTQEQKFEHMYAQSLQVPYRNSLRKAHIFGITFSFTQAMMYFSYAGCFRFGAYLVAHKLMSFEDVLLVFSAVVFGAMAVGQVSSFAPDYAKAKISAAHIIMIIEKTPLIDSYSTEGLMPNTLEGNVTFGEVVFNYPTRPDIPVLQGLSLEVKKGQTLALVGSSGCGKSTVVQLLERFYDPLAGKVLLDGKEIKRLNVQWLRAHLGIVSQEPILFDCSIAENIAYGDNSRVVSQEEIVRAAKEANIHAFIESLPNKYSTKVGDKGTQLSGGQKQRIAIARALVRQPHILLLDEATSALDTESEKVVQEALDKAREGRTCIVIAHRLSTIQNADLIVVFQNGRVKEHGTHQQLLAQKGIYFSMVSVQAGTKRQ
Procedure: as §6
Data set [8] relates to MES-SA cells. Nature of the data set: Growth inhibition (MTT) assay, with or without MDR modulators. Particulars: MES-SA cells. It counts as cell-based, human. As for the experimental part: as §1, §2, §3
Data set [9] deals with Dx/PAS cells. Nature of the data set: MTT assay, DxP subclone. The data set is classed as cell-based, human. How it is done: as §2, §3
(§5) Clonal Analysis of D×P cells. Subcloning of cells was performed by limiting dilution. Both resistant and revertant clones were analyzed for the MDR phenotype, drug accumulation, and rt-PCR or heteroduplex as described above.
On the technique in general: Tetrazolium assays rely on reduction of a dye to a coloured formazan, in cell work by metabolically active cells.

Data set [10] has as its system Dx/PBS cells. Description: MTT assay, DxP subclone. The data set is classed as cell-based, human. As for the experimental part: as §2, §3, §5
For data set [11], the system named is Dx/PCS cells. Description: MTT assay, DxP subclone. It counts as cell-based, human. How it is done: as §2, §3, §5
Data set [12] concerns Dx/PDS cells. Nature of the data set: MTT assay, DxP subclone. The data set is classed as cell-based, human. How it is done:
as §2, §3, §5

Data set [13] has as its system Dx/PES cells. Nature of the data set: MTT assay, DxP subclone. The data set is classed as cell-based, human. As for the experimental part: as §2, §3, §5
The subject of data set [14] is Dx/PFS cells. Description: MTT assay, DxP subclone. It counts as cell-based, human. How it is done: as §2, §3, §5
In data set [15] the test system is Dx/PGS cells. Description: MTT assay, DxP subclone. It counts as cell-based, human. As for the experimental part:
as §2, §3, §5

The subject of data set [16] is Dx/PIS cells. Nature of the data set: MTT assay, DxP subclone. It counts as cell-based, human. As for the experimental part:
as §2, §3, §5

Data set [17] relates to Dx/PJS cells. Description: MTT assay, DxP subclone. The data set is classed as cell-based, human. As for the experimental part:
as §2, §3, §5

The subject of data set [18] is Dx/PMS cells. Nature of the data set: MTT assay, DxP subclone. The data set is classed as cell-based, human. As for the experimental part:
as §2, §3, §5

Like-named read-outs stand apart in the source and are kept apart here.

The IC50 is the concentration needed to halve the response being measured.

For the compound `C/C=C/C[C@@H](C)C(=O)[C@H]1C(=O)N[C@@H](C(C)C)C(=O)N(C)CC(=O)N(C)[C@@H](CC(C)C)C(=O)N[C@@H](C(C)C)C(=O)N(C)[C@@H](CC(C)C)C(=O)N[C@@H](C)C(=O)N[C@H](C)C(=O)N(C)[C@@H](CC(C)C)C(=O)N(C)[C@@H](CC(C)C)C(=O)N(C)[C@@H](C(C)C)C(=O)N1C` [PSC 833], in data set [1] (2 μM, sensitivity to DOX, vinblastine, paclitaxel, vincristine and colchicine relative to MES-SA), the “Modulation of MDR by the modulator (in words)” value is on record as “completely restored the sensitivity”. In data set [2] (DxP cells, PSC 833 2 μM, cyclosporin 3 μM, verapamil 6 μM), the “Resistance of cells to the modulating effects of the modulator (in words)” value is on record as “almost completely resistant”. Moreover, the “Effect of modulator on Rh-123 accumulation” value in data set [3] (PSC 833 2 μM) is “completely restored”. The “Modulation of decreased drug accumulation by modulator” value in [4] is “complete modulation”; in data set [5] (DxP cells), “not modulated”. For the same compound, the “Modulation of decreased [3H]-cyclosporin accumulation by modulator” value in data set [4] (to levels of DxP and MES-SA cells) was “completely modulated”. Moreover, the “Effect on [125I]-iodoarylazidoprazosin photoaffinity labeling of P-gp” value in data set [6] (100 μM) was “abolished detectable P-gp labeling”; in data set [6] (0.1 and 10 μM) it was “effectively competed”; in [7] (100 μM), “abolished detectable P-gp labeling”; in [7] (0.1 and 10 μM), “enhanced photoaffinity binding”. In data set [7], the “Displacement of [3H]-azidopine photoaffinity labeling” value was “resistant to the displacement”.
Regarding `CC[C@]1(O)C[C@@H]2CN(CCc3c([nH]c4ccccc34)[C@@](C(=O)OC)(c3cc4c(cc3OC)N(C)[C@H]3[C@@](O)(C(=O)OC)[C@H](OC(C)=O)[C@]5(CC)C=CCN6CC[C@]43[C@@H]65)C2)C1` [Vinblastine], the half-inhibitory concentration (IC50) in [8] (Homo sapiens, 72 hr MTT, read-out: IC50 of drug-sensitive MES-SA cells (values in parenthesis)) is 4 nM. Besides, the Fold resistance is 0.3-1 fold in data set [8] (+2 μM PSC 833); 0.5 fold in data set [8] (+2 μM PSC 833, listed as vinblastine); 0.5-1 fold in data set [8] (+3 μM cyclosporin A); 0.4-1 fold in [8] (+6 μM Verapamil); 1 fold in data set [8] (no modulator, 72 hr MTT); 1 fold in data set [1] (+2 μM PSC 833). Also, the Fold resistance in data set [1] (+3 μM cyclosporin A) is recorded as 6 fold; in data set [1] (+6 μM Verapamil), 4 fold; in [1] (no modulator, relative to MES-SA), 243 fold; in data set [2] (DxP cells, +2 μM PSC 833), 12 fold; in [2] (DxP cells, +3 μM cyclosporin A), 7 fold; in data set [2] (DxP cells, +6 μM Verapamil), 3 fold. The “Fold resistance” value in [2] (DxP cells, no modulator, relative to MES-SA) amounted to 14 fold. Besides, the “Dx5/DxP, fold of resistance difference in DxP cells compared with parental Dx5 cells” value in data set [2] (DxP vs Dx5) came to 17 fold. In addition, the “fold resistance relative to MES-SA” value was 5 fold in data set [9] (+ PSC); 15 fold in data set [9] (no modulator); 1 fold in [10] (+ PSC); 3 fold in data set [10] (no modulator); 3 fold in data set [11] (+ PSC); 8 fold in data set [11] (no modulator). Besides, the “fold resistance relative to MES-SA” value came out at 6 fold in [12] (+ PSC); 20 fold in data set [12] (no modulator); 1 fold in data set [13] (+ PSC); 3 fold in data set [13] (no modulator); 8 fold in data set [14] (+ PSC); 21 fold in data set [14] (no modulator). Also, the “fold resistance relative to MES-SA” value is 1 fold in data set [15] (+ PSC); 2 fold in data set [15] (no modulator); 1 fold in [16] (+ PSC); 2 fold in [16] (no modulator); 10 fold in data set [17] (+ PSC); 19 fold in data set [17] (no modulator). In addition, the “fold resistance relative to MES-SA” value in data set [18] (+ PSC) is given as 2 fold; in data set [18] (no modulator) it was 5 fold. The “Effect on [125I]-iodoarylazidoprazosin photoaffinity labeling of P-gp” value in [6] (100 μM) was “abolished detectable P-gp labeling”; in [6] (0.1 and 10 μM), “effectively competed”; in [7] (100 μM), “abolished detectable P-gp labeling”; in [7] (0.1 and 10 μM) it was “enhanced photoaffinity binding”. In data set [7], the “Displacement of [3H]-azidopine photoaffinity labeling” value was “resistant to the displacement”.
As for Rhodamine-123 [Rh-123], the “Cellular accumulation of Rh-123” value in data set [3] is recorded as “markedly decreased”.
As for [^3 H]-vinblastine, in data set [5] ([3H]-labeled drug, 1 hr), the “Intracellular accumulation in DxP relative to Dx5 cells” value was “approximately 3 fold”.

Source of the values: US5830697A, “P-glycoprotein mutant resistant to cyclosporin modulation” (The Board of Trustees of the Leland Stanford Junior …, priority 1997, dated 1998).
